Experimental data reported in publication PMC11239005, “Preclinical studies of RA475, a guanidine-substituted spirocyclic candidate RPN13/ADRM1 inhibitor for treatment of ovarian cancer” (PLOS ONE, 2024).

What was measured:
4UbFL in 4T1 cells = experiment: 4UbFL reporter assay, 4T1; type: cell-based; details: 4T1 stably expressing 4UbFL, 4 h
Experimental: Sub-confluent cultures of cells were transfected with 4UbFL plasmid using TransIT 2020 reagent (Mirus Bio). Cells were seeded at 10,000 cells/well in 96-well plates 48 h post transfection, and incubated with compounds or vehicle (DMSO) at the doses and for the times indicated. Luciferase activity in cell lysate was determined with a luciferase assay kit (Promega) according to the manufacturer’s instructions. Bioluminescence was measured using a Glomax Multidetection system (Promega).
Fig 3 Impact of RA475 on proteasome function. […] Actin was used as loading control. […] After a 4 h incubation, the cells were lysed and the luciferase activity in each cell lysate was determined with a luciferase assay kit (Promega) according to the manufacturer’s instructions. Bioluminescence was measured by using a luminometer (Glomax Multidetection system, Promega) E) A patch was shaved of hair on one leg of CD-1 mice, and 10 μg 4UbFL plasmid in 20 μL of PBS was injected into the quadriceps femoralis muscle followed immediately by injection of the 2 Needle Array to 5 mm depth encompassing the injection site and square wave electroporation (ElectroSquarePorator 833, BTX-2 Needle array 5mm gap, Harvard apparatus) delivered as eight pulses at 106V for 20 ms with 200 ms intervals. […] Equally sized areas were analyzed using Living Image 2.20 software. […]

MDA-MB-468 cells = experiment: Surface Annexin V display by flow cytometry, MDA-MB-468; type: cell-based; details: MDA-MB-468, 12 h; RA475 1 or 2 μM, ixazomib 1 μM
Experimental: The percentage of cells initiating apoptosis was assessed with the annexin V FITC assay kit. The cells (2 × 10^5 cells/well) were treated with the described compounds at selected concentrations for 12 h or 16 h, as indicated. The cells were then collected, washed with PBS, resuspended in 100 μL of annexin V-FITC and 7-AAD dual-stain solution (3 μL Annexin V and 3 μL 7AAD, Catalog Number; 559763-BD bioscience), and incubated 20 min in the dark. The samples were then analyzed via flow cytometry using FlowJo V10 software. All experiments were repeated three times.
Supplementary file pone.0305710.s006.tif: S6 Fig RA475 induced apoptosis in a triple negative breast cancer cell line. […] (TIF)

Cl.Cl.N#Cc1ccc(/C=C2/C(=O)/C(=C/c3ccc(C#N)cc3)C23CCN(C(=N)N)CC3)cc1 [RA475, 1,3-bis((E)-4-cyanobenzylidene)-2-oxo-7-azaspiro[3.5]nonane-7-carboximidamide dihydrochloride]
4UbFL bioluminescence signal (4UbFL in 4T1 cells): dose dependent increases in bioluminescence signal
apoptosis by surface Annexin V display (MDA-MB-468 cells): initiated apoptosis
